These results are taken from ChEMBL document CHEMBL5321215, “Discovery of quinazolin-4(3H)-one derivatives as novel AChE inhibitors with anti-inflammatory activities” (Eur J Med Chem, 2023).

Activity calls are given as the source filed them. The rule behind the calls is not given here.

The target of data set [1] is Cholinesterase (Homo sapiens, UniProt P06276). As to the kind of experiment: Inhibition of BChE (unknown origin).
The target of data set [2] is Acetylcholinesterase (Homo sapiens, UniProt P22303). As to the kind of experiment: Inhibition of AChE (unknown origin).
Chain of Acetylcholinesterase (Homo sapiens, UniProt P22303) (P22303 whole entry): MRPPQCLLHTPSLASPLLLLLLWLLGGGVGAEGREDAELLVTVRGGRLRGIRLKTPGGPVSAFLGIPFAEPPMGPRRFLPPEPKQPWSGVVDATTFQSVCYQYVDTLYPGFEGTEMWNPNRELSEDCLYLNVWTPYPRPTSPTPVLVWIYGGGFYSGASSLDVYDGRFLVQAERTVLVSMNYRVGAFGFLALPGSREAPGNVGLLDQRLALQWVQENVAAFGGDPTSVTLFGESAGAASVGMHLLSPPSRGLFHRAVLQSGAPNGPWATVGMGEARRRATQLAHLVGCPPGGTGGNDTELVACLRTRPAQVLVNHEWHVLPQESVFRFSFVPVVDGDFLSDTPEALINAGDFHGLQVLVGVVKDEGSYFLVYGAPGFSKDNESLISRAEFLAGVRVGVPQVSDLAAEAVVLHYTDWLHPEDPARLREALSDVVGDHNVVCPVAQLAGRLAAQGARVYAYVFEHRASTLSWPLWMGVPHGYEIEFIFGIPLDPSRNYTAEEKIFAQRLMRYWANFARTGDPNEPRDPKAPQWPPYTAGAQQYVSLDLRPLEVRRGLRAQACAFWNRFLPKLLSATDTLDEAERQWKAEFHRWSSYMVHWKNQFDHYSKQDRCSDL
Data set [3] deals with Acetylcholinesterase (Electrophorus electricus) (UniProt O42275). The data set is described as follows: Inhibition of electric eel AChE using acetylthiocholine iodide as substrate at 20 uM incubated for 20 mins by Ellman's method relative to control.
Chain of Acetylcholinesterase (Electrophorus electricus) (O42275 24-633 limits assumed): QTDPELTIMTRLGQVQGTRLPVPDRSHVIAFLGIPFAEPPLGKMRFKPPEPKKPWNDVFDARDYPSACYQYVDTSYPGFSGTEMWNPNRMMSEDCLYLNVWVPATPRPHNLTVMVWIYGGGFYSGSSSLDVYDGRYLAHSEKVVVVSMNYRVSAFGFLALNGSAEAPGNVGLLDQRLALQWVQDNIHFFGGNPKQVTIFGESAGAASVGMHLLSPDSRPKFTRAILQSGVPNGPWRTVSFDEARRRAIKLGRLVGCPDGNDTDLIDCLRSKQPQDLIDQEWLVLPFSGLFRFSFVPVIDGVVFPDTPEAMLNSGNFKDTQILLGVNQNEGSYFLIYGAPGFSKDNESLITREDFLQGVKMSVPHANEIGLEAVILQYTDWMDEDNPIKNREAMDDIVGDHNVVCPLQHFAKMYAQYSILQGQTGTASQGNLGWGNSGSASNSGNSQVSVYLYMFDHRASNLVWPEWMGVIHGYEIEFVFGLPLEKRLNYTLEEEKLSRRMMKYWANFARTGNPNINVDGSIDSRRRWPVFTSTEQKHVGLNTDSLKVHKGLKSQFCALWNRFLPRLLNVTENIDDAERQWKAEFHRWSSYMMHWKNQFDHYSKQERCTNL
Data set [4] concerns the target Acetylcholinesterase (Electrophorus electricus, UniProt O42275). As to the kind of experiment: Inhibition of electric eel AChE using acetylthiocholine iodide as substrate incubated for 20 mins by Ellman's method. A general note: In Ellman's method for cholinesterases, released thiocholine reacts with DTNB.
Data set [5] deals with Cholinesterase (Equus caballus) (UniProt P81908). The data set is described as follows: Inhibition of equine serum BChE at 20 uM by Ellman's method relative to control. Format: cell-free.
Chain of Cholinesterase (Equus caballus) (P81908 whole entry): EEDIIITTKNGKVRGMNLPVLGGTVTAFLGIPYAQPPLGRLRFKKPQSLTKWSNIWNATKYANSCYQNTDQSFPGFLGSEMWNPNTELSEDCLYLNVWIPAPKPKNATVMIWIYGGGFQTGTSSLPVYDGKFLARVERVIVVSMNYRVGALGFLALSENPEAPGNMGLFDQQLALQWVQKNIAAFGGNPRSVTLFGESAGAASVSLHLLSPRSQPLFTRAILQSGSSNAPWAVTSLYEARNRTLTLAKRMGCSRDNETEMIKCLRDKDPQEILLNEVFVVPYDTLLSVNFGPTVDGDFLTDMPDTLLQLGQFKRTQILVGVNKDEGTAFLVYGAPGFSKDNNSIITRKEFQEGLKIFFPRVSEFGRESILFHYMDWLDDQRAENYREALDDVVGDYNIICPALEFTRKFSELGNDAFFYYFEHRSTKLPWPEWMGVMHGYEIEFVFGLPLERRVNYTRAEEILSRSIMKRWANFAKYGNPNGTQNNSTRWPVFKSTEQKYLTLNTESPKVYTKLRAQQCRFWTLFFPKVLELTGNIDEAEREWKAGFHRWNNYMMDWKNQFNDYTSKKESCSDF
Data set [6] has the same target. As to the kind of experiment: Mixed type inhibition of equine serum BChE assessed as Kis by Lineweaver-Burk plot analysis. The format is cell-free.
Data set [7] concerns the target T1, Cholinesterase (Equus caballus, UniProt P81908). As to the kind of experiment: Inhibition of equine serum BChE by Ellman's method. The format is cell-free.
Data set [8] deals with RAW264.7. As to the kind of experiment: Antiinflammatory activity against mouse RAW264.7 cells assessed as inhibition of LPS-induced nitric oxide production at 20 uM preincubated for 24 hrs followed by LPS stimulation by Griess reagent-based colorimetric assay relative to control. Further details: scale not given: the % may be the effect or the level left. Format: functional.

Data set [9] concerns the target T1, Cholinesterase. The data set is described as follows: Mixed type inhibition of equine serum BChE assessed as inhibition constant by Lineweaver-Burk plot analysis. Format: cell-free.
For data set [10], the target named is Cholinesterase (Equus caballus) (UniProt P81908). As to the kind of experiment: Mixed type inhibition of equine serum BChE assessed as increase in slope and Y-intercept at increasing concentration by Lineweaver-Burk plot analysis. The format is cell-free.
Data set [11] relates to BV-2. As to the kind of experiment: Cytotoxicity against mouse BV-2 cells assessed as reduction in cell viability at 10 uM incubated for 24 hrs by CCK-8 assay. The format is toxicity, cell-based. The note with it: bv-2, 24 h. A general note: Tetrazolium dyes change colour on reduction, which living cells bring about.
Data set [12] concerns BV-2. The data set is described as follows: Antiinflammatory activity against mouse BV-2 cells assessed as reduction in LPS-induced CCL2 mRNA expression measured after 24 hrs by qRT-PCR analysis. The note with it: dose 1.25-10 µM. Format: functional, cell-based. For orientation: Real-time PCR tracks product formation cycle by cycle.
Data set [13] has as its target Acetylcholinesterase (Electrophorus electricus) (UniProt O42275). The data set is described as follows: Non competitive inhibition of Electric eel AChE using acetylthiocholine iodide as substrate assessed as decrease in Vmax with constant Km by Lineweaver-Burk plot analysis.
The test system of data set [14] is BV-2. As to the kind of experiment: Antiinflammatory activity against mouse BV-2 cells assessed as reduction in LPS-induced IL-1beta mRNA expression measured after 24 hrs by qRT-PCR analysis. Format: functional, cell-based. The note with it: dose 1.25-10 µM.
In data set [15] the target is NACHT, LRR and PYD domains-containing protein 3 (Mus musculus) (UniProt Q8R4B8). As to the kind of experiment: Inhibition of NLRP3 inflammasome in LPS-induced mouse BV-2 cells assessed as decrease in NLRP3 protein expression at 10 uM incubated for 24 hrs by Western blot analysis. Format: cell-based.
Chain of NACHT, LRR and PYD domains-containing protein 3 (Mus musculus) (Q8R4B8 whole entry, the tested form may be a part): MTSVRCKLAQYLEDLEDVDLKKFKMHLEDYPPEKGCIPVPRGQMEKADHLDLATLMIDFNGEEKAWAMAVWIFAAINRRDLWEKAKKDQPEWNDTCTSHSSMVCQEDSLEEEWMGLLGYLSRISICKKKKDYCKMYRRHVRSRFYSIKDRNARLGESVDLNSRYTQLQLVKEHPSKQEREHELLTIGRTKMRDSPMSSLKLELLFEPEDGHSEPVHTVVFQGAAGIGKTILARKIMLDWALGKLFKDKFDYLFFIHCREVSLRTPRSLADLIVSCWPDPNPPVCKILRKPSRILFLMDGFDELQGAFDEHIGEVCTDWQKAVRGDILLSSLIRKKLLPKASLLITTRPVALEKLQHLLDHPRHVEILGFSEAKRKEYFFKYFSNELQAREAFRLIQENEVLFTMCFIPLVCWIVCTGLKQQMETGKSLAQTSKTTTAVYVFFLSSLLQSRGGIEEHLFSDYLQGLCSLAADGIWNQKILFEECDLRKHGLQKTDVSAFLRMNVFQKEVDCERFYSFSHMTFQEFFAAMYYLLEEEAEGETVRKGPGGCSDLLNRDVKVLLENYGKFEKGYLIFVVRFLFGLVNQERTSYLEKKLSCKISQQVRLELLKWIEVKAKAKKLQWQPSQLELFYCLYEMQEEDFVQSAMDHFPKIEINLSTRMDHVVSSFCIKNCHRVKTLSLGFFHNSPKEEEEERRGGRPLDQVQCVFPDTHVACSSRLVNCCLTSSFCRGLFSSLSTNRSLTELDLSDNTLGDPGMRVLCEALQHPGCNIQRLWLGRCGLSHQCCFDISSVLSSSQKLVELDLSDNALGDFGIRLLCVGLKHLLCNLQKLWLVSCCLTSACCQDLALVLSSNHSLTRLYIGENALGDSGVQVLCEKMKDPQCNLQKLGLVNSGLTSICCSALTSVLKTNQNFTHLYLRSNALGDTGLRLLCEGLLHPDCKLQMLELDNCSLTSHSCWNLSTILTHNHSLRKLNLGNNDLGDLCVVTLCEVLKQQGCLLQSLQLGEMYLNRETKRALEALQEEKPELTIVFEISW
Data set [16] relates to BV-2. As to the kind of experiment: Inhibition of NF-kappaB pathway in LPS-induced mouse BV-2 cells assessed as reduction in p65 protein expression level at 10 uM incubated for 24 hrs by Western blot analysis. The format is cell-based.
Data set [17] deals with RAW264.7. The data set is described as follows: Antiinflammatory activity against mouse RAW264.7 cells assessed as inhibition of LPS-induced nitric oxide production preincubated for 24 hrs followed by LPS stimulation by Griess reagent-based colorimetric assay. The format is functional, cell-based.
Data set [18] relates to BV-2. The data set is described as follows: Antiinflammatory activity against mouse BV-2 cells assessed as reduction in LPS-induced TNF-alpha mRNA expression measured after 24 hrs by qRT-PCR analysis. Format: functional, cell-based. The note with it: dose 1.25-10 µM.
Data set [19] relates to BV-2. The data set is described as follows: Inhibition of NF-kappaB pathway in LPS-induced mouse BV-2 cells assessed as reduction in phosphorylated p65 protein expression level at 10 uM incubated for 24 hrs by Western blot analysis. Format: cell-based.
For data set [20], the system named is BV-2. The data set is described as follows: Inhibition of MAPK/JNK signalling pathway in LPS-induced mouse BV-2 cells assessed as reduction in JNK phosphorylation level at 10 uM incubated for 24 hrs by Western blot analysis. The format is cell-based.
For data set [21], the system named is BV-2. The data set is described as follows: Antiinflammatory activity against mouse BV-2 cells assessed as reduction in LPS-induced IL-6 mRNA expression level measured after 24 hrs by qRT-PCR analysis. The note with it: dose 1.25-10 µM. Format: functional, cell-based.
Data set [22] relates to BV-2. The data set is described as follows: Effect on JNK protein level in LPS-induced mouse BV-2 cells at 10 uM incubated for 24 hrs by Western blot analysis. The format is functional, cell-based.

T1 sequence (P81908 whole entry): as the sequence (P81908 whole entry) above
Chain of Acetylcholinesterase (Electrophorus electricus, UniProt O42275) (O42275 whole entry): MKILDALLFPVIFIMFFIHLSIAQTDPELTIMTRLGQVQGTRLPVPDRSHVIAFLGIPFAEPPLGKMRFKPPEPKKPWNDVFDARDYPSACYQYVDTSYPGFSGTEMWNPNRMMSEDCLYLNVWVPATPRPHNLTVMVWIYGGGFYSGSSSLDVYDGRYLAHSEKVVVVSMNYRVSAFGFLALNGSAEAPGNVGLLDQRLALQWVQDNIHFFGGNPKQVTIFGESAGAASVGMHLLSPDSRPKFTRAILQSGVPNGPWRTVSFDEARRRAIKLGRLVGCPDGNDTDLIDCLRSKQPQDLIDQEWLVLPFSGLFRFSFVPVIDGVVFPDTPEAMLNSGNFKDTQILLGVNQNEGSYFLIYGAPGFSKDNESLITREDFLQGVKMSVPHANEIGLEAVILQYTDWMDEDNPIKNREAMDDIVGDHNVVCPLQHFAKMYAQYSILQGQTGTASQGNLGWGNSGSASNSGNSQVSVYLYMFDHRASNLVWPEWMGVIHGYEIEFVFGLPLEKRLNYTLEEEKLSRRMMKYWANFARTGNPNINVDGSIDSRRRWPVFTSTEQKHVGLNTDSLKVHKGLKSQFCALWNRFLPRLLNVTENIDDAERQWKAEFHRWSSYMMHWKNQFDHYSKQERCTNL
Chain of Cholinesterase (Homo sapiens, UniProt P06276) (P06276 whole entry): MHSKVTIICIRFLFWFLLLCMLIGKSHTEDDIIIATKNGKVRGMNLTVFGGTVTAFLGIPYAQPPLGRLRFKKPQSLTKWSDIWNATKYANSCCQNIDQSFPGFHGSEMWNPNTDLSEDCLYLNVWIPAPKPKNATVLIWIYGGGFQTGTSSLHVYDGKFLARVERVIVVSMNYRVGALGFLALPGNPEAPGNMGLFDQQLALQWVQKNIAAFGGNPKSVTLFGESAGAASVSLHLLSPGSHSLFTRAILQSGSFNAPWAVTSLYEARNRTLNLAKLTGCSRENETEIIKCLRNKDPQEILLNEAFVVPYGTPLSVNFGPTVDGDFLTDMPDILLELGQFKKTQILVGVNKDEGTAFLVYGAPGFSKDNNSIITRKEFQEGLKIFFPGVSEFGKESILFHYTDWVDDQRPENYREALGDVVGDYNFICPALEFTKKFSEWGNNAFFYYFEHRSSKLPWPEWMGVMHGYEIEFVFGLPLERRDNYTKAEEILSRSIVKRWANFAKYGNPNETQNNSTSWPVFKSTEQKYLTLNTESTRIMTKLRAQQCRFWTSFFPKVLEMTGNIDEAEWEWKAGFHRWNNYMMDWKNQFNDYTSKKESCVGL

Take `CON(C)C(=O)Oc1ccccc1C(=O)NCCc1c[nH]c2ccccc12`: the IC50 (usually the point on the concentration scale where inhibition reaches its midpoint) in data set [1] was found to be 1.84 µM; in data set [2], 3.24 µM.

On to `COc1cc(OC)c2c(=O)[nH]c(-c3cn(Cc4ccccc4)cn3)nc2c1`, for which the inhibition – broadly, the relative decrease from the control value, in per cent – in data set [3] worked out at 87.9%; in data set [5], 95%. For the same compound, the IC50 in [4] was 7.01 µM; in [7] it was 0.83 µM. The Kis in [6] is 8.58 µM. Moreover, the Activity is 33.4% in data set [8] and “Toxic” in data set [11]. In addition, in [9], the inhibition constant (Ki) (usually a measure of affinity in units of concentration, obtained from inhibition or displacement) stood at 0.74 µM. Moreover, in [10], the inhibition result is “Active”.

As to `COc1cc(OC)c2c(=O)[nH]c(-c3ccc(N4CCN(C)CC4)cc3)nc2c1`, the Activity entry was “Dose-Dependent Effect” in data set [12]; “Dose-Dependent Effect” in data set [14]; “Dose-Dependent Effect” in [18]; 116.4% in data set [8]; “Dose-Dependent Effect” in [21]; “Non-Toxic” in data set [11]. For the same compound, the inhibition in [3] was 91.8%; in data set [5], 38.7%. In addition, the values for the concentration for half-maximal inhibition (IC50) in [4], in data set [7] and in [17] were 5.04 µM, > 20 µM and 3.29 µM, respectively. Further, the inhibition result in data set [13], in data set [15], in [16], in [19] and in data set [20] was “Active” throughout. In data set [22], the outcome was Active.
